Data from patent US20150010639A1, “PHAR[…] DIETARY COMPOSITIONS BASED ON SHORT-CHAIN FATTY ACIDS AND COMPLEX SUGARS, FOR INTESTINAL DISORDERS” (COSMO TECHNOLOGIES LTD., priority 2004, published 2015).

Test system: inflammatory bowel disease (IBD), symptom of diarrhoea
Test: clinical study in patients with inflammatory bowel disease (IBD): symptom of diarrhoea on subjective 5-point scale
Format: in vivo, adult patients
Conditions: n = 6 IBD patients; for Diarrhoea % improvement relative to the base time / Diarrhoea mean intensity, final: after 4 weeks of daily oral treatment, 250 mg of each active; for Diarrhoea mean intensity, final / Diarrhoea mean intensity, base: scale 0 to 4; for Diarrhoea mean intensity, base: base time before treatment
Method: The clinical study described below was performed with the tablets thus produced.
The study was performed on 18 adult patients of both sexes, divided into three homogeneous groups each of 6 patients, who were suffering from inflammatory bowel disease (IBD) and were treated as follows:
Group 1: 250 mg butyric acid
Group 3: 250 mg butyric acid+250 mg inulin
The active ingredients were transported in tablets which were indistinguishable in shape, size, weight and colour.
The treatments were administered orally daily before the main meal for a period of 4 weeks.
Before the start of the treatment (base time) and then upon completion of the 4 weeks of treatment, each patient was assessed for the presence of the symptom of diarrhoea.
This symptom was quantified, according to its intensity, on a subjective 5-point scale graduated from 0 (absence of indisposition) to 4 (indisposition of considerable gravity). The mean intensity at the base time and at the end of the period of treatment and the percentage of improvement relative to the base time were calculated for this symptom.

Molecule	Diarrhoea % improvement relative to the base time	Diarrhoea mean intensity, final	Diarrhoea mean intensity, base
CCCC(=O)O [butyric acid]	44%	1.5	2.7
inulin	27%	2.1	2.9
